Laboratory results: the supplement of paper PMC4977894
Counter-ions that a name gives are not always drawn. ± gives the standard deviation of the averaged measurements.

Assays:
[1] = system: Homo sapiens (human subject panel, olfactory perception); test: perceived odor familiarity rating (rating 0-100); higher = more familiar
Summary of the method: (§1)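 Values for familiarity, intensity and pleasantness are averaged over subjects. The panel of 55 healthy people aged 18–50 excluded the six lowest performers and rated each paraffin-oil dilution of a molecule at high and low concentrations. Ratings were made only for stimuli the subject reported smelling, on a slider converted to a 0–100 scale.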

[2] = system: Homo sapiens (human subject panel, olfactory perception); test: perceived odor pleasantness rating (rating 0-100); higher = more pleasant
Summary of the method: as §1

[3] = system: Homo sapiens (human subject panel, olfactory perception); test: perceived odor intensity rating (rating 0-100); higher = stronger perceived smell
Summary of the method: as §1

[4] = odor dilution in paraffin oil: 1/10
[5] = odor dilution in paraffin oil: 1/1,000
[6] = odor dilution in paraffin oil: 1/100,000
[7] = odor dilution in paraffin oil: 1/10,000,000

| SMILES | perceived odor familiarity rating [1, 4] | perceived odor familiarity rating [1, 5] | perceived odor pleasantness rating [2, 4] | perceived odor pleasantness rating [2, 5] | perceived odor intensity rating [3, 4] | perceived odor intensity rating [3, 5] | perceived odor familiarity rating [1, 6] | perceived odor pleasantness rating [2, 6] | perceived odor intensity rating [3, 6] | perceived odor familiarity rating [1, 7] | perceived odor pleasantness rating [2, 7] | perceived odor intensity rating [3, 7] |
| --- | --- | --- | --- | --- | --- | --- | --- | --- | --- | --- | --- | --- |
| O=C(OCCc1ccccc1)c1ccccc1O [Phenethyl salicylate] | 38.8 ± 29 | 33.8 ± 29 | 58.9 ± 22 | 49.2 ± 22 | 37.3 ± 31 | 17.8 ± 25 |  |  |  |  |  |  |
| NCCc1ccccc1 [Phenethylamine] |  | 46.8 ± 34 |  | 29.1 ± 28 |  | 62.9 ± 34 | 38.8 ± 26 | 48 ± 25 | 22.8 ± 26 |  |  |  |
| c1ccc(SSc2ccccc2)cc1 [Phenyl disulfide] |  | 47.2 ± 29 |  | 26.6 ± 23 |  | 61.2 ± 26 | 43.5 ± 29 | 28.3 ± 25 | 52.5 ± 30 |  |  |  |
| C/C(=C\CO)CCC[C@H](C)CCC[C@H](C)CCCC(C)C [Phytol] | 47.1 ± 32 | 25.4 ± 33 | 28.1 ± 21 | 44.2 ± 30 | 68.8 ± 26 | 19.8 ± 26 |  |  |  |  |  |  |
| C1CCNCC1 [Piperidine] |  | 53.6 ± 36 |  | 13.2 ± 18 |  | 76.5 ± 24 | 39.4 ± 29 | 48.2 ± 24 | 28.6 ± 31 |  |  |  |
| O=C(/C=C/C=C/c1ccc2c(c1)OCO2)N1CCCCC1 [Piperine] | 49.2 ± 31 | 20.9 ± 26 | 51.5 ± 26 | 44.9 ± 29 | 54.1 ± 29 | 19.4 ± 27 |  |  |  |  |  |  |
| CC(C)C(=O)OCc1ccc2c(c1)OCO2 [Piperonyl isobutyrate] |  | 38.4 ± 29 |  | 48.3 ± 25 |  | 29.4 ± 27 | 30.2 ± 25 | 43.1 ± 18 | 26.4 ± 30 |  |  |  |
| CCCOC(=O)CC [Propyl propionate] |  | 50.4 ± 32 |  | 44.4 ± 26 |  | 72.1 ± 21 | 33.7 ± 27 | 48.7 ± 25 | 22.9 ± 25 |  |  |  |
| CC(O)CO (stereo unspecified) [Propylene glycol] | 52.2 ± 30 | 33.7 ± 29 | 46.2 ± 25 | 42.5 ± 25 | 45.8 ± 34 | 10.5 ± 13 |  |  |  |  |  |  |
| SCCc1cnccn1 [Pyrazineethanethiol] |  |  |  |  |  |  | 37.2 ± 33 | 45.4 ± 26 | 33.8 ± 38 | 29.8 ± 25 | 49.2 ± 20 | 23.6 ± 22 |
| C1CCNC1 [Pyrrolidine] |  |  |  |  |  |  | 28.9 ± 29 | 40.7 ± 19 | 26.9 ± 26 | 37.2 ± 27 | 37.5 ± 22 | 26.6 ± 24 |
| CC(=O)C(=O)O [Pyruvic Acid] |  | 52.1 ± 29 |  | 39.1 ± 28 |  | 70.6 ± 23 | 44.5 ± 29 | 53.4 ± 24 | 37.7 ± 32 |  |  |  |
| c1ccc2ncccc2c1 [Quinoline] |  | 47.7 ± 34 |  | 22.4 ± 24 |  | 80.7 ± 18 | 41.4 ± 26 | 34.1 ± 24 | 56.4 ± 27 |  |  |  |
| O.O.O=P([O-])([O-])O.[Na+].[Na+] [Sodium phosphate dibasic] | 40.5 ± 32 | 31.5 ± 24 | 63.4 ± 26 | 46.2 ± 26 | 27.2 ± 27 | 24.1 ± 25 |  |  |  |  |  |  |
| O=C(O)CCC(=O)O [Succinic acid] | 35.5 ± 25 | 35.5 ± 32 | 34.6 ± 24 | 36.1 ± 21 | 46.2 ± 35 | 32.3 ± 27 |  |  |  |  |  |  |
| CC1=CCC(C(C)(C)OC=O)CC1 (stereo unspecified) [Terpinyl formate] |  | 45.6 ± 31 |  | 37.8 ± 26 |  | 42.2 ± 30 | 28.1 ± 26 | 46.9 ± 30 | 14.6 ± 20 |  |  |  |
| CC(=O)OCC1CCCO1 (stereo unspecified) [Tetrahydrofurfuryl acetate] |  | 42.4 ± 28 |  | 40.6 ± 26 |  | 55.6 ± 24 | 27.8 ± 24 | 49.1 ± 26 | 17 ± 24 |  |  |  |
| OCC1CCCO1 (stereo unspecified) [Tetrahydrofurfuryl alcohol] |  | 30.3 ± 29 |  | 42.7 ± 25 |  | 29.6 ± 27 | 40.3 ± 28 | 45.1 ± 22 | 18.4 ± 23 |  |  |  |

| SMILES | perceived odor familiarity rating [1, 4] | perceived odor familiarity rating [1, 5] | perceived odor pleasantness rating [2, 4] | perceived odor pleasantness rating [2, 5] | perceived odor intensity rating [3, 4] | perceived odor intensity rating [3, 5] | perceived odor familiarity rating [1, 6] | perceived odor pleasantness rating [2, 6] | perceived odor intensity rating [3, 6] | perceived odor familiarity rating [1, 7] | perceived odor pleasantness rating [2, 7] | perceived odor intensity rating [3, 7] |
| --- | --- | --- | --- | --- | --- | --- | --- | --- | --- | --- | --- | --- |
| Cc1ncc(C[n+]2csc(CCO)c2C)c(N)n1 [Thiamine hydrochloride] | 51.5 ± 29 | 44.7 ± 28 | 35.5 ± 25 | 36.4 ± 22 | 67.1 ± 23 | 61.6 ± 25 |  |  |  |  |  |  |
| c1cscn1 [Thiazole] |  | 41.3 ± 29 |  | 43.2 ± 24 |  | 25.1 ± 27 | 27.2 ± 25 | 45.5 ± 21 | 18.8 ± 22 |  |  |  |
| c1ccsc1 [Thiophene (replicate)] |  | 53.9 ± 31 |  | 33.7 ± 27 |  | 66.4 ± 25 | 42.1 ± 26 | 36 ± 22 | 27.6 ± 31 |  |  |  |
| c1ccsc1 [Thiophene] |  | 39.3 ± 29 |  | 28.7 ± 20 |  | 32.8 ± 34 | 43.1 ± 30 | 40.8 ± 24 | 39.5 ± 30 |  |  |  |
| CC(=O)OCC(COC(C)=O)OC(C)=O [Triacetin] | 54.5 ± 35 | 39.2 ± 35 | 33.1 ± 25 | 38.9 ± 24 | 57.8 ± 29 | 45.1 ± 30 |  |  |  |  |  |  |
| CCCCOC(=O)CC(CC(=O)OCCCC)(OC(C)=O)C(=O)OCCCC [Tributyl-2-Acetylcitrate] | 35.9 ± 28 | 37.7 ± 28 | 43.2 ± 22 | 51.5 ± 23 | 41.4 ± 30 | 6.93 ± 11 |  |  |  |  |  |  |
| CCCC(=O)OCC(COC(=O)CCC)OC(=O)CCC [Tributyrin] |  | 49.9 ± 30 |  | 22.2 ± 22 |  | 68.8 ± 28 | 36.9 ± 30 | 39.5 ± 23 | 31.9 ± 29 |  |  |  |
| CCOC(=O)CC(O)(CC(=O)OCC)C(=O)OCC [Triethyl citrate] | 41.4 ± 29 | 26.4 ± 22 | 41.1 ± 19 | 46.2 ± 24 | 31.3 ± 30 | 20.4 ± 24 |  |  |  |  |  |  |
| NCCc1ccc(O)cc1 [Tyramine] | 51 ± 31 | 35.4 ± 34 | 34.7 ± 28 | 58 ± 26 | 53.2 ± 33 | 20.4 ± 25 |  |  |  |  |  |  |
| CCCCCCCCCCC(=O)O [Undecanoic acid] | 45.9 ± 32 | 41.9 ± 34 | 22.9 ± 21 | 31.1 ± 24 | 81.8 ± 19 | 57.4 ± 33 |  |  |  |  |  |  |
| COc1cc(C=O)ccc1OC(C)=O [Vanillin Acetate] | 69.6 ± 28 | 65.3 ± 28 | 74.3 ± 22 | 72.5 ± 22 | 64.3 ± 26 | 54.6 ± 27 |  |  |  |  |  |  |
| COc1ccc(C=O)cc1OC [Veratraldehyde] | 75.1 ± 26 | 53 ± 28 | 75.3 ± 22 | 62.4 ± 22 | 74.1 ± 23 | 35.2 ± 29 |  |  |  |  |  |  |
| CCCCC1OC(=O)CC1C (stereo unspecified) [Whiskey lactone] |  | 62.2 ± 30 |  | 69.7 ± 22 |  | 71.3 ± 23 | 50.6 ± 33 | 60.2 ± 27 | 51.8 ± 29 |  |  |  |
| CC=O [acetaldehyde] |  | 37.4 ± 29 |  | 45 ± 22 |  | 40.5 ± 31 | 41.4 ± 31 | 54 ± 24 | 21.8 ± 26 |  |  |  |
| CC(=O)O [acetic acid] |  |  |  |  |  |  | 42 ± 32 | 47.8 ± 24 | 21.2 ± 25 | 35.5 ± 32 | 46.1 ± 18 | 11.8 ± 16 |
| CC(C)=O [acetone] | 40.6 ± 28 | 38.8 ± 31 | 56.6 ± 25 | 51.2 ± 24 | 37 ± 32 | 30 ± 29 |  |  |  |  |  |  |
| CC(=O)c1ccccc1 [acetophenone] |  | 61.3 ± 31 |  | 52.8 ± 30 |  | 81.5 ± 17 | 42.6 ± 30 | 52.7 ± 26 | 45.1 ± 29 |  |  |  |
| C=CCOC(=O)CCCCC [allyl hexanoate] |  | 64.1 ± 27 |  | 71.8 ± 22 |  | 57.3 ± 29 | 34.4 ± 29 | 49.2 ± 19 | 24.9 ± 27 |  |  |  |
